Measurements taken from patent publication US20200038418A1, “METHODS OF TREATING AUTISM SPECTRUM DISORDER USING AMINOSTEROL COMPOSITIONS” (Enterin, Inc., priority 2018, published 2020).
Several values for one entry are separate records, joined by “and”; a condition that tells them apart may be missing. Equal entries are not always repeated.

Columns and labels:
[1] = test system: patients with PD and constipation; assay: Stage 2 bowel function, stool related indices; assay type: in vivo, human; conditions: Stage 2, fixed dose, n = 34
Method: Following successful screening, all subjects underwent a 14-day run-in period where the degree of constipation was assessed through a validated daily log (Zinsmeister et al., 2013) establishing baseline CSBMs/week. Subjects with an average of <3 CSBMs/week proceeded to dosing.
(§1) In Stage 2, 34 patients were evaluated.
The primary efficacy outcome variable was whether or not a subject was a “success” or “failure.” This is an endpoint based on subject diary entries for the “fixed dose” period prior to the endpoint assessment defined as average complete stool frequency increase by 1 or more over baseline, or 3 or more complete spontaneous stools/week. The subject was deemed a “success” if s/he met one or more of the criteria listed above, otherwise the subject was deemed a “failure.” The primary analysis was based on all subjects with a baseline assessment and an assessment at the end of the “fixed-dose” period and was a comparison of the proportion of successes with 0.10 (the null hypothesis corresponding to no treatment effect).

Solubility in water = assay type: physicochemical; conditions: pH<3.5 (the pH of gastric fluid)
C. elegans model of PD = C. elegans model of PD in vivo; cited from earlier work
[2] = Phase 2 trial Stage 2, adverse events; assay type: in vivo, human
Method: as §1

[3] = Stage 2 (34 dosed), daily oral dosing
[4] = Stage 2 (34 dosed), daily oral dosing, unrelated to ENT-01

## CC(C)[C@@H](CC[C@@H](C)[C@H]1CC[C@H]2[C@@H]3[C@H](O)C[C@H]4C[C@@H](NCCCNCCCCN)CC[C@]4(C)[C@H]3CC[C@]12C)OS(=O)(=O)O (single isomer, unassigned) [squalamine (ENT-01), squalamine]
[1]
  CSBM, weekly average (mean, SD): 3.8 CSBM/week and 3.8 (2.40) CSBM/week
  PAC-SYM (mean, SD): 1.1 (0.49)
  Suppository use / rescue medication, weekly average (mean, SD): 0.3 /week
[1]; listed as aminosterol
  Consistency, Bristol stool scale 1-7 (mean, SD): 4.1
  Ease of passage, Ease of evacuation scale (mean, SD): 3.7
Solubility in water
  dissolution: readily dissolves
C. elegans model of PD
  formation of aggregates of αS: inhibit the formation of aggregates of αS
[2]; [3]
  Abdominal pain, Mild: 4(11.7) n, %
  Abdominal pain, Moderate: 2(5.8) n, %
  Blood in urine, Moderate: 0 n, %
  Diarrhea, Mild: 12(35) n, %
  Diarrhea, Moderate: 2(5.8) n, %
  Diarrhea, Severe: 1(2.9) n, %
  Difficulty falling asleep, Mild: 1(3) n, %
  Difficulty falling asleep, Moderate: 0 n, %
  Dizziness, Mild: 7(20.5) n, %
  Dizziness, Moderate: 1(2.9) n, %
  Eye infection, Mild: 1(3) n, %
  Eye infection, Moderate: 0 n, %
  Flatulence, Mild: 1(3) n, %
  Flatulence, Moderate: 0 n, %
  Headache, Mild: 3(8.8) n, %
  Headache, Moderate: 0 n, %
  Increased urinary frequency, Mild: 2(5.8) n, %
  Increased urinary frequency, Moderate: 0 n, %
  Loss of appetite, Moderate: 0 n, %
  Nausea, Mild: 18(52) n, %
  Nausea, Moderate: 1(2.9) n, %
  Skin lesions-rash, Mild: 3(8.8) n, %
  Skin lesions-rash, Moderate: 0 n, %
  Urinary retention, Mild: 1(3) n, %
  Urinary retention, Moderate: 0 n, %
  Urinary tract infection, Mild: 1(3) n, %
  Urinary tract infection, Moderate: 2(5.8) n, %
  Vomiting, Mild: 2(5.8) n, %
  Vomiting, Moderate: 0 n, %
  Worsening acid reflux, Mild: 4(11.7) n, %
  Worsening acid reflux, Moderate: 0 n, %
  Worsening hemorrhoid, Mild: 1(3) n, %
  Worsening hemorrhoid, Moderate: 0 n, %
[2]; [4]
  Blood in urine, Mild: 0 n, %
  Loss of appetite, Mild: 0 n, %
[2]; Stage 2, daily oral dosing, colonic diverticulosis, polyp, patient on aspirin, Plavix and naproxen, unrelated to ENT-01
  Lower GI bleed, Severe: 1(2.5) n, %
